In US8247377B2, “Non-steroidal glucocorticoid inhibitors and their use in treating inflammation, allergy and auto-immune conditions” (Glaxo Group Limited, priority 2006, dated 2012):

Test system: NFκB
Assay: NFκB agonist assay in A549 SPAP cells;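 as to average maximum asymptote in the NFkB assay: maximum inhibition of the TNFα-induced NFκB-driven signal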
Type: cell-based
Conditions: Homo sapiens; for Emax: A549, A549 SPAP cells, >85% = full agonist, ≧20% = partial or full agonist, read-out: average maximum asymptote in the NFkB assay; for IC50: A549 SPAP cells, TNFα 3.2 ng/ml, read-out: pIC50 for the NFkB assay (converted)
In short: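 A549 cells stably carrying an ELAM/NFκB-driven SPAP reporter were pre-incubated 1 h at 37° C with compound, then stimulated with TNFα (3.2 ng/ml final) for 15 h. SPAP activity read colorimetrically with pNPP at 405 nm after ~1 h; pIC50 estimated from dose-response curves.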

Structure (SMILES) | Emax | IC50
CCN(CC(O)(CNC(=O)c1cnn(-c2ccc(F)cc2)c1N)C(F)(F)F)C(=O)c1c(OC(F)F)cccc1OC(F)F (racemic) [Example 26 (racemic), 5-amino-N-(2-{[({2,6-bis[(difluoromethyl)oxy]phenyl}carbonyl)(ethyl)amino]methyl}-3,3,3-trifluoro-2-hydroxypropyl)-1-(4-fluorophenyl)-1H-pyrazole-4-carboxamide] | > 85% | < 1000 nM
CCN(CC(O)(CNC(=O)c1cnn(-c2ccc(F)cc2)c1N)C(F)(F)F)C(=O)c1c(C(F)(F)F)cccc1C(F)(F)F (racemic) [Example 27 (racemic), 5-amino-N-(2-{[{[2,6-bis(trifluoromethyl)phenyl]carbonyl}(ethyl)amino]methyl}-3,3,3-trifluoro-2-hydroxypropyl)-1-(4-fluorophenyl)-1H-pyrazole-4-carboxamide] | > 85% | < 1000 nM
Nc1c(C(=O)NCC(O)(CN(CCF)C(=O)c2c(Cl)cccc2Cl)C(F)(F)F)cnn1-c1ccc(F)cc1 (racemic) [Example 28 (racemic), 5-amino-N-(2-{[[(2,6-dichlorophenyl)carbonyl](2-fluoroethyl)amino]methyl}-3,3,3-trifluoro-2-hydroxypropyl)-1-(4-fluorophenyl)-1H-pyrazole-4-carboxamide] | > 85% | < 1000 nM
Nc1c(C(=O)NCC(O)(CN(CCF)C(=O)c2c(Cl)cccc2Br)C(F)(F)F)cnn1-c1ccc(F)cc1 (racemic) [Example 30 (racemic), 5-amino-N-(2-{[[(2-bromo-6-chlorophenyl)carbonyl](2-fluoroethyl)amino]methyl}-3,3,3-trifluoro-2-hydroxypropyl)-1-(4-fluorophenyl)-1H-pyrazole-4-carboxamide] | > 85% | < 1000 nM
Nc1c(C(=O)NCC(O)(CN(CCF)C(=O)c2c(Cl)cccc2OC(F)F)C(F)(F)F)cnn1-c1ccc(F)cc1 (racemic) [Example 31 (racemic), 5-amino-N-(2-{[({2-chloro-6-[(difluoromethyl)oxy]phenyl}carbonyl)(2-fluoroethyl)amino]methyl}-3,3,3-trifluoro-2-hydroxypropyl)-1-(4-fluorophenyl)-1H-pyrazole-4-carboxamide] | > 85% | < 1000 nM
CCN(CC(O)(CNC(=O)c1cnn(-c2ccc(F)c(F)c2)c1N)C(F)(F)F)C(=O)c1c(F)cccc1F (racemic) [Example 33 (racemic), 5-amino-1-(3,4-difluorophenyl)-N-(2-{[[(2,6-difluorophenyl)carbonyl](ethyl)amino]methyl}-3,3,3-trifluoro-2-hydroxypropyl)-1H-pyrazole-4-carboxamide] | > 85% | < 1000 nM
CCN(CC(O)(CNC(=O)c1cnn(-c2ccc(F)cc2F)c1N)C(F)(F)F)C(=O)c1c(F)cccc1F (racemic) [Example 34 (racemic), 5-amino-1-(2,4-difluorophenyl)-N-(2-{[[(2,6-difluorophenyl)carbonyl](ethyl)amino]methyl}-3,3,3-trifluoro-2-hydroxypropyl)-1H-pyrazole-4-carboxamide] | > 85% | < 1000 nM
CCN(CC(O)(CNC(=O)c1cnn(-c2cc(F)cc(F)c2)c1N)C(F)(F)F)C(=O)c1c(F)cccc1F (racemic) [Example 35 (racemic), 5-amino-1-(3,5-difluorophenyl)-N-(2-{[[(2,6-difluorophenyl)carbonyl](ethyl)amino]methyl}-3,3,3-trifluoro-2-hydroxypropyl)-1H-pyrazole-4-carboxamide] | > 85% | < 1000 nM
CCN(CC(O)(CNC(=O)c1cnn(-c2cc(F)ccc2F)c1N)C(F)(F)F)C(=O)c1c(F)cccc1F (racemic) [Example 36 (racemic), 5-amino-1-(2,5-difluorophenyl)-N-(2-{[[(2,6-difluorophenyl)carbonyl](ethyl)amino]methyl}-3,3,3-trifluoro-2-hydroxypropyl)-1H-pyrazole-4-carboxamide] | > 85% | < 1000 nM
CCN(CC(O)(CNC(=O)c1cnn(-c2c(F)cccc2F)c1N)C(F)(F)F)C(=O)c1c(F)cccc1F (racemic) [Example 37 (racemic), 5-amino-1-(2,6-difluorophenyl)-N-(2-{[[(2,6-difluorophenyl)carbonyl](ethyl)amino]methyl}-3,3,3-trifluoro-2-hydroxypropyl)-1H-pyrazole-4-carboxamide] | > 85% | < 1000 nM
CCN(CC(O)(CNC(=O)c1cnn(-c2cccc(F)c2)c1N)C(F)(F)F)C(=O)c1c(F)cccc1F (racemic) [Example 38 (racemic), 5-amino-N-(2-{[[(2,6-difluorophenyl)carbonyl](ethyl)amino]methyl}-3,3,3-trifluoro-2-hydroxypropyl)-1-(3-fluorophenyl)-1H-pyrazole-4-carboxamide] | > 85% | < 1000 nM
CCN(CC(O)(CNC(=O)c1cnn(-c2ccc(Cl)cc2)c1N)C(F)(F)F)C(=O)c1c(F)cccc1F (racemic) [Example 39 (racemic), 5-amino-1-(4-chlorophenyl)-N-(2-{[[(2,6-difluorophenyl)carbonyl](ethyl)amino]methyl}-3,3,3-trifluoro-2-hydroxypropyl)-1H-pyrazole-4-carboxamide] | > 85% | < 1000 nM
CCN(CC(O)(CNC(=O)c1cnn(-c2cccc(Cl)c2)c1N)C(F)(F)F)C(=O)c1c(F)cccc1F (racemic) [Example 41 (racemic), 5-amino-1-(3-chlorophenyl)-N-(2-{[[(2,6-difluorophenyl)carbonyl](ethyl)amino]methyl}-3,3,3-trifluoro-2-hydroxypropyl)-1H-pyrazole-4-carboxamide] | > 85% | < 1000 nM
CCN(CC(O)(CNC(=O)c1cnn(-c2ccccc2F)c1N)C(F)(F)F)C(=O)c1c(F)cccc1F (racemic) [Example 42 (racemic), 5-amino-N-(2-{[[(2,6-difluorophenyl)carbonyl](ethyl)amino]methyl}-3,3,3-trifluoro-2-hydroxypropyl)-1-(2-fluorophenyl)-1H-pyrazole-4-carboxamide] | > 85% | < 1000 nM
Nc1c(C(=O)NCC(O)(CNC(=O)c2c(C(F)F)cccc2C(F)F)C(F)(F)F)cnn1-c1ccc(F)cc1 (racemic) [Example 43 (racemic), 5-Amino-N-{2-[({[2,6-bis(difluoromethyl)phenyl]carbonyl}amino)methyl]-3,3,3-trifluoro-2-hydroxypropyl}-1-(4-fluorophenyl)-1H-pyrazole-4-carboxamide] | ≥ 20% | < 1000 nM
Nc1c(C(=O)NCC(O)(CNC(=O)c2c(Br)cccc2C(F)(F)F)C(F)(F)F)cnn1-c1ccc(F)cc1 (racemic) [Example 45 (racemic), 5-Amino-N-{2-[({[2-bromo-6-(trifluoromethyl)phenyl]carbonyl}amino)methyl]-3,3,3-trifluoro-2-hydroxypropyl}-1-(4-fluorophenyl)-1H-pyrazole-4-carboxamide] | ≥ 20% | < 1000 nM
Nc1c(C(=O)NCC(O)(CNC(=O)c2c(Cl)cccc2Cl)C(F)(F)F)cnn1-c1ccc(F)cc1 (single isomer, unassigned) [Example 3 Enantiomer 1, 5-Amino-N-[2-({[(2,6-dichlorophenyl)carbonyl]amino}methyl)-3,3,3-trifluoro-2-hydroxypropyl]-1-(4-fluorophenyl)-1H-pyrazole-4-carboxamide] | ≥ 20% | < 1000 nM
CCN(CC(O)(CNC(=O)c1cnn(-c2ccc(F)cc2)c1N)C(F)(F)F)C(=O)c1ccccc1S(C)(=O)=O (single isomer, unassigned) [Example 10 Enantiomer 1, 5-Amino-N-{2-[(ethyl{[2-(methylsulfonyl)phenyl]carbonyl}amino)methyl]-3,3,3-trifluoro-2-hydroxypropyl}-1-(4-fluorophenyl)-1H-pyrazole-4-carboxamide] | > 85% | < 1000 nM
Nc1c(C(=O)NCC(O)(CNC(=O)c2c(Br)cccc2Br)C(F)(F)F)cnn1-c1ccc(F)cc1 (single isomer, unassigned) [Example 11 Enantiomer 1, 5-Amino-N-[2-({[(2,6-dibromophenyl)carbonyl]amino}methyl)-3,3,3-trifluoro-2-hydroxypropyl]-1-(4-fluorophenyl)-1H-pyrazole-4-carboxamide] | ≥ 20% | < 1000 nM
Nc1c(C(=O)NCC(O)(CNC(=O)c2c(Cl)cccc2Br)C(F)(F)F)cnn1-c1ccc(F)cc1 (single isomer, unassigned) [Example 12 Enantiomer 1, 5-Amino-N-[2-({[(2-bromo-6-chlorophenyl)carbonyl]amino}methyl)-3,3,3-trifluoro-2-hydroxypropyl]-1-(4-fluorophenyl)-1H-pyrazole-4-carboxamide] | ≥ 20% | < 1000 nM
Nc1c(C(=O)NCC(O)(CNC(=O)c2c(F)cccc2Br)C(F)(F)F)cnn1-c1ccc(F)cc1 (single isomer, unassigned) [Example 13 Enantiomer 1, 5-Amino-N-[2-({[(2-bromo-6-fluorophenyl)carbonyl]amino}methyl)-3,3,3-trifluoro-2-hydroxypropyl]-1-(4-fluorophenyl)-1H-pyrazole-4-carboxamide] | ≥ 20% | < 1000 nM
Nc1c(C(=O)NCC(O)(CNC(=O)c2c(Cl)cccc2OC(F)F)C(F)(F)F)cnn1-c1ccc(F)cc1 (single isomer, unassigned) [Example 14 Enantiomer 1, 5-Amino-N-(2-{[({2-chloro-6-[(difluoromethyl)oxy]phenyl}carbonyl)amino]methyl}-3,3,3-trifluoro-2-hydroxypropyl)-1-(4-fluorophenyl)-1H-pyrazole-4-carboxamide] | ≥ 20% | < 1000 nM
